Patent US20240173295A1, “A STABLE, EMULSION-FORMING LIQUID COMPOSITION COMPRISING AMINO ACIDS” (Brain Luxury Inc., priority 2021, published 2024)
Read-outs that look alike come from different tables or passages of the source. Marks after values point to notes of the source that are not given here.

Assay: Chemical stability of liquid composition on storage
Format: physicochemical
Method: The chemical stability of a disclosed liquid composition stored at 6° C. or 22° C. was evaluated at 2 months and three months. The microbial stability and shelf life was also evaluated. A liquid composition having a pH of about 3.7 was subjected to high pressure processing at 6000 bar for two cycles of 5 minutes.

[1] = stored at 6° C. or 22° C., adjusted for slightly lower oil volume in 3 months preparation (55 ml vs 60 ml)

NCC(=O)O [Glycine]
amount in liquid composition at 2 Months (chemical stability) (stored at 6° C. or 22° C.): 3319 mg/60 mL | amount in liquid composition at 3 Months (chemical stability) (stored at 6° C. or 22° C.): 3303 mg/60 mL

N[C@@H](Cc1c[nH]c2ccccc12)C(=O)O [L-Tryptophan]
amount in liquid composition at 2 Months (chemical stability) (stored at 6° C. or 22° C.): 420 mg/60 mL | amount in liquid composition at 3 Months (chemical stability) (stored at 6° C. or 22° C.): 426 mg/60 mL

[Mg+2] [Magnesium]
amount in liquid composition at 2 Months (chemical stability): 15 mg/60 mL | amount in liquid composition at 3 Months (chemical stability): 27.8 mg/60 mL

[Na] [Sodium]
amount in liquid composition at 2 Months (chemical stability) (stored at 6° C. or 22° C.): 1.23 mg/60 mL | amount in liquid composition at 3 Months (chemical stability) (stored at 6° C. or 22° C.): 0.6 mg/60 mL

O=C1O[C@H]([C@@H](O)CO)C(O)=C1O [Vitamin C]
amount in liquid composition at 2 Months (chemical stability) (stored at 6° C. or 22° C.): 326 mg/60 mL | amount in liquid composition at 3 Months (chemical stability) (stored at 6° C. or 22° C.): 245 mg/60 mL

[Zn] [Zinc]
amount in liquid composition at 2 Months (chemical stability) (stored at 6° C. or 22° C.): 6 mg/60 mL | amount in liquid composition at 3 Months (chemical stability) (stored at 6° C. or 22° C.): 5.7 mg/60 mL

CC/C=C\C/C=C\C/C=C\CCCCCCCC(=O)O [alpha linoleic acid]
amount in liquid composition at 2 Months (chemical stability): 1026 mg/60 mL | amount in liquid composition at 3 Months (chemical stability): 1025* mg/60 mL

CC/C=C\C/C=C\C/C=C\C/C=C\C/C=C\CCCC(=O)O [eicosapentaenoic acid]
amount in liquid composition at 2 Months (chemical stability) (stored at 6° C. or 22° C.): 319 mg/60 mL | amount in liquid composition at 3 Months (chemical stability) [1]: 297* mg/60 mL

Medium chain triglycerides
amount in liquid composition at 2 Months (chemical stability): 2209 mg/60 mL | amount in liquid composition at 3 Months (chemical stability): 2407* mg/60 mL

Vitamin D
amount in liquid composition at 2 Months (chemical stability) (stored at 6° C. or 22° C.): 25 mcg/60 mL | amount in liquid composition at 3 Months (chemical stability) [1]: 26* mcg/60 mL

Vitamin E
amount in liquid composition at 3 Months (chemical stability) (stored at 6° C. or 22° C.): 2.2 mg/60 mL

docosapenataenoic acid
amount in liquid composition at 2 Months (chemical stability) (stored at 6° C. or 22° C.): 632 mg/60 mL | amount in liquid composition at 3 Months (chemical stability) [1]: 587* mg/60 mL
